Patent publication US7473790B2 (Pfizer Inc., priority 2003, dated 2009)

biological target: T1, HCV polymerase (Hepatitis C virus genotype 1b, UniProt P26663); assay: HCV polymerase primer/template-directed transcription assay (32P-GTP incorporation, filter binding); assay type: biochemical; settings: recombinant HCV polymerase; 30 minutes at 30° C.; concentration giving 50% inhibition of polymerase-directed transcription; read-out: IC50
T1 construct: 2.5 pmoles (0.15 μg) HCV polymerase protein in a final volume of 75 μL
Protocol: The compounds described herein were tested for activity with HCV polymerase. Recombinant HCV polymerase was tested for its ability to perform primer/template-directed transcription in assays that contained 30 mM tris-HCl pH 7.2, 10 mM MgCl2, 20 mM NaCl, 1 mM Dithiothreitol (DTT), 0.05% Tween-20, 1% glycerol, 5 pmoles biotin-dG12 (primer), 0.5 pmoles poly(rC)300 (template), 1 μM GTP, 0.1-0.3 uCi α-^32P-GTP, and 2.5 pmoles (0.15 μg) HCV polymerase protein in a final volume of 75 μL. Reactions were initiated by addition of enzyme and incubated 30 minutes at 30° C. Reactions were stopped by addition of 33 mM EDTA, and polynucleotide products were collected by filtration through Diethylaminoethyl (DE) Filtermat papers (Wallac). Unincorporated triphosphate was removed by washing the filters with 5% dibasic sodium phosphate. The filters were counted in a Packard Tri-Lux Microbeta scintillation counter (Packard Bioscience, Meriden, Conn.). Compounds to be tested were added at various concentrations, e.g., 1 μm to 50 μm, from stocks in 10% DMSO-water (final DMSO is 1% in reaction).
IC50 values were estimated from the primary cpm data (collected in triplicate) using the formula: cpm (I)=cpm(no inhibitor)(1−([I]/([I]+IC50))). An IC50 value represents the concentration (in μM) of a compound that provides 50% inhibition of polymerase-directed transcription in the above assay. A percent inhibition value is expressed for a compound where it was impractical to calculate an IC50 value with available data. If the IC50 estimated by the above equation was less than 200 nM, it was recalculated using the following equation, which takes into account the enzyme concentration (30 nM) in the assay: cpm(I)=cpm(no inhibitor)(1−((((I+IC50+30e−9)−sqrt(((I+IC50+30e−9)^2)−4×30e−9×I)))/((2)(30e−9))). Curve fitting was performed using the program KaleidaGraph (Synergy Software, Reading, Pa.).

T1 sequence (P26663 2420-3010): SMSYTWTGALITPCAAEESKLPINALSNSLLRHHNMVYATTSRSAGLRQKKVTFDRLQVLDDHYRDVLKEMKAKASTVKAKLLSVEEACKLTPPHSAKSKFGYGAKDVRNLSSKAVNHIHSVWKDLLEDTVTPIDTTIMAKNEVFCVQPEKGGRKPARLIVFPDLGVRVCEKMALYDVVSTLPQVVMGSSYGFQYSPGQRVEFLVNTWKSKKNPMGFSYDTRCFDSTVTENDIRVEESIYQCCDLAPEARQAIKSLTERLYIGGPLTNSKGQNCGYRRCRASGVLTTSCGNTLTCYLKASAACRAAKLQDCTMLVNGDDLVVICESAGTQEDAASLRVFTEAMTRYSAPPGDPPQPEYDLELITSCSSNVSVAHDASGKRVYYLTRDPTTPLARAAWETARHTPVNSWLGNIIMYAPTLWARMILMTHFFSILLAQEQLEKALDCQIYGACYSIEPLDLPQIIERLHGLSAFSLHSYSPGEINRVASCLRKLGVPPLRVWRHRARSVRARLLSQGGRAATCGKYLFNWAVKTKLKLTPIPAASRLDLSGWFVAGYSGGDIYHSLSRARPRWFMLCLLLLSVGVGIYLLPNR

Row | Compound | IC50
1 | CC(C)(C#N)c1ccc(CCC2(C3CCCC3)CC(=O)C(Cc3nc4ncccn4n3)C(=O)O2)cc1F (racemic) [A(104), 2-{4-[2-(2-Cyclopentyl-4,6-dioxo-5-[1,2,4]triazolo[1,5-a]pyrimidin-2-ylmethyl-tetrahydro-pyran-2-yl)-ethyl]-2-fluoro-phenyl}-2-methyl-propionitrile] | 8 nM
2 | Cc1cnc2nc(CC3C(=O)CC(CCc4ccc(C(C)(C)C#N)c(F)c4)(C4CCCC4)OC3=O)nn2c1 (racemic) [A(108), 2-(4-{2-[2-Cyclopentyl-5-(6-methyl-[1,2,4]triazolo[1,5-a]pyrimidin-2-ylmethyl)-4,6-dioxo-tetrahydro-pyran-2-yl]-ethyl}-2-fluoro-phenyl)-2-methyl-propionitrile] | 3 nM
3 | Cc1cc(C)n2nc(CC3=C(O)CC(CCc4ccc(C5(C#N)CC5)c(Cl)c4)(C4CCCC4)OC3=O)nc2n1 (racemic) [A(200), 1-(2-Chloro-4-{2-[2-cyclopentyl-5-(5,7-dimethyl-[1,2,4]triazolo[1,5-a]pyrimidin-2-ylmethyl)-4-hydroxy-6-oxo-3,6-dihydro-2H-pyran-2-yl]-ethyl}-phenyl)-cyclopropanecarbonitrile] | 5 nM
4 | Cc1cc(C)n2nc(CC3=C(O)CC(CCc4ccc(C5(C#N)CC5)c(Cl)c4)(C4CCCC4)OC3=O)nc2n1 (racemic) [A(201), 1-(2-Chloro-4-{2-[2-cyclopentyl-5-(5,7-dimethyl-[1,2,4]triazolo[1,5a]pyrimidin 2-ylmethyl)-4-hydroxy-6-oxo-3,6-dihydro-2H-pyran-2-yl]-ethyl}-phenyl)-cyclopropanecarbonitrile] | 12 nM
5 | Cc1cnc2nc(CC3=C(O)CC(CCc4ccc(C(C)(C)C#N)c(Cl)c4)(C4CCCC4)OC3=O)nn2c1 (racemic) [A(202), 2-(2-Chloro-4-{2-[2-cyclopentyl-4-hydroxy-5-(6-methyl-[1,2,4]triazolo[1,5-a]pyrimidin-2-ylmethyl)-6-oxo-3,6-dihydro-2H-pyran-2-yl]-ethyl}-phenyl)-2-methyl-propionitrile] | 12 nM
6 | Cc1cnc2nc(CC3=C(O)CC(CCc4ccc(C(C)(C)C#N)c(Cl)c4)(C4CCCC4)OC3=O)nn2c1 (racemic) [A(203), 2-(2-Chloro-4-{2-[2-cyclopentyl-4-hydroxy-5-(6-methyl-[1,2,4]triazolo[1,5-a]pyrimidin-2-ylmethyl)-6-oxo-3,6-dihydro-2H-pyran-2-yl]-ethyl}-phenyl)-2-methyl-propionitrile] | 20 nM
7 | CCc1cc(CCC2(C3CCCC3)CC(O)=C(Cc3nc4ncc(Cl)cn4n3)C(=O)O2)c(OC)cc1O (racemic) [A(210), 3-[(6-chloro[1,2,4]triazolo[1,5-a]pyrimidin-2-yl)methyl]-6-cyclopentyl-6-[2-(5-ethyl-4-hydroxy-2-methoxyphenyl)ethyl]-4-hydroxy-5,6-dihydro-2H-pyran-2-one] | 2 nM
8 | CCc1cc(CCC2(C3CCCC3)CC(O)=C(Cc3nc4ncc(Cl)cn4n3)C(=O)O2)c(OC)cc1O (racemic) [A(211), (−)-3-[(6-chloro[1,2,4]triazolo[1,5-a]pyrimidin-2-yl)methyl]-6-cyclopentyl-6-[2-(5-ethyl-4-hydroxy-2-methoxyphenyl)ethyl]-4-hydroxy-5,6-dihydro-2H-pyran-2-one] | 4 nM
9 | CCc1cc(CCC2(C3CCCC3)CC(O)=C(Cc3nc4ncc(C)cn4n3)C(=O)O2)c(OC)cc1O (racemic) [A(212), 3-[(6-methyl[1,2,4]triazolo[1,5-a]pyrimidin-2-yl)methyl]-6-cyclopentyl-6-[2-(5-ethyl-4-hydroxy-2-methoxyphenyl)ethyl]-4-hydroxy-5,6-dihydro-2H-pyran-2-one] | 4 nM
10 | CCc1cc(CCC2(C3CCCC3)CC(O)=C(Cc3nc4ncc(C)cn4n3)C(=O)O2)c(OC)cc1O (racemic) [A(213), 3-[(6-methyl[1,2,4]triazolo[1,5-a]pyrimidin-2-yl)methyl]-6-cyclopentyl-6-[2-(5-ethyl-4-hydroxy-2-methoxyphenyl)ethyl]-4-hydroxy-5,6-dihydro-2H-pyran-2-one] | 4.5 nM
11 | O=C1OC(CCc2ccc(O)c(CC(F)(F)F)c2)(C2CCCC2)CC(O)=C1Cc1nc2ncc(Cl)cn2n1 (racemic) [A(223), 3-[(6-chloro[1,2,4]triazolo[1,5-a]pyrimidin-2-yl)methyl]-6-cyclopentyl-4-hydroxy-6-{2-[4-hydroxy-3-(2,2,2-trifluoroethyl)phenyl]ethyl}-5,6-dihydro-2H-pyran-2-one] | 5 nM
12 | O=C1OC(CCc2ccc(O)c(CC(F)(F)F)c2)(C2CCCC2)CC(O)=C1Cc1nc2ncc(Cl)cn2n1 (racemic) [A(227), 3-[(6-chloro[1,2,4]triazolo[1,5-a]pyrimidin-2-yl)methyl]-6-cyclopentyl-4-hydroxy-6-{2-[4-hydroxy-3-(2,2,2-trifluoroethyl)phenyl]ethyl}-5,6-dihydro-2H-pyran-2-one] | 10 nM
13 | CCC(C#N)(CC)c1c(F)cc(CCC2(C3CCCC3)CC(O)=C(Cc3nc4ncc(C)cn4n3)C(=O)O2)cc1F (racemic) [A(262), 2-(4-{2-[2-Cyclopentyl-4-hydroxy-5-(6-methyl-[1,2,4]triazolo[1,5-a]pyrimidin-2-ylmethyl)-6-oxo-3,6-dihydro-2H-pyran-2-yl]-ethyl}-2,6-difluoro-phenyl)-2-ethyl-butyronitrile] | 6 nM
14 | CCC(C#N)(CC)c1ccc(CCC2(C3CCCC3)CC(O)=C(Cc3nc4ncc(Cl)cn4n3)C(=O)O2)cc1F (racemic) [A(265), 2-(4-{2-[5-(6-Chloro-[1,2,4]triazolo[1,5-a]pyrimidin-2-ylmethyl)-2-cyclopentyl-4-hydroxy-6-oxo-3,6-dihydro-2H-pyran-2-yl]-ethyl}-2-fluoro-phenyl)-2-ethyl-butyronitrile] | 4 nM
15 | CCc1cc(CCC2(C3CCCC3)CC(O)=C(Cc3nc4ncc(Cl)cn4n3)C(=O)O2)ccc1O (racemic) [A(271), 3-(6-Chloro-[1,2,4]triazolo[1,5-a]pyrimidin-2-ylmethyl)-6-cyclopentyl-6-[2-(3-ethyl-4-hydroxy-phenyl)-ethyl]-4-hydroxy-5,6-dihydro-pyran-2-one] | 6 nM
16 | CCc1cc(CCC2(C3CCCC3)CC(O)=C(Cc3nc4ncc(Cl)cn4n3)C(=O)O2)ccc1O (racemic) [A(272), 3-(6-Chloro-[1,2,4]triazolo[1,5-a]pyrimidin-2-ylmethyl)-6-cyclopentyl-6-[2-(3-ethyl-4-hydroxy-phenyl)-ethyl]-4-hydroxy-5,6-dihydro-pyran-2-one] | 6 nM
17 | CCc1cc(CCC2(C3CCCC3)CC(O)=C(Cc3nc4nc(C)cc(C)n4n3)C(=O)O2)c(OC)cc1O (single isomer, unassigned) [A(154), 6-Cyclopentyl-3-(5,7-dimethyl-[1,2,4]triazolo[1,5-a]pyrimidin-2-ylmethyl)-6-[2-(5-ethyl-4-hydroxy-2-methoxy-phenyl)-ethyl]-4-hydroxy-5,6-dihydro-pyran-2-one] | 5 nM
18 | CC(C)(C#N)c1ccc(CCC2(C3CCCC3)CC(O)=C(Cc3nc4ncc(Cl)cn4n3)C(=O)O2)cc1Cl (single isomer, unassigned) [A(204), 2-(2-Chloro-4-{2-[5-(6-chloro-[1,2,4]triazolo[1,5-a]pyrimidin-2-ylmethyl)-2-cyclopentyl-4-hydroxy-6-oxo-3,6-dihydro-2H-pyran-2-yl]-ethyl}-phenyl)-2-methyl-propionitrile] | 17 nM
19 | CC(C)(C#N)c1ccc(CCC2(C3CCCC3)CC(O)=C(Cc3nc4ncc(Cl)cn4n3)C(=O)O2)cc1Cl (single isomer, unassigned) [A(205), 2-(2-Chloro-4-{2-[5-(6-chloro-[1,2,4]triazolo[1,5-a]pyrimidin-2-ylmethyl)-2-cyclopentyl-4-hydroxy-6-oxo-3,6-dihydro-2H-pyran-2-yl]-ethyl}-phenyl)-2-methyl-propionitrile] | 1 nM
20 | CCc1cc(CCC2(C3CCCC3)CC(O)=C(Cc3nc4ncccn4n3)C(=O)O2)c(OC)cc1O (single isomer, unassigned) [A(208), 6-cyclopentyl-6-[2-(5-ethyl-4-hydroxy-2-methoxyphenyl)ethyl]-4-hydroxy-3-([1,2,4]triazolo[1,5-a]pyrimidin-2-ylmethyl)-5,6-dihydro-2H-pyran-2-one] | 7 nM
21 | CCc1cc(CCC2(C3CCCC3)CC(O)=C(Cc3nc4ncccn4n3)C(=O)O2)c(OC)cc1O (single isomer, unassigned) [A(209), 6-cyclopentyl-6-[2-(5-ethyl-4-hydroxy-2-methoxyphenyl)ethyl]-4-hydroxy-3-([1,2,4]triazolo[1,5-a]pyrimidin-2-ylmethyl)-5,6-dihydro-2H-pyran-2-one] | 50 nM
22 | CC(C)Oc1ccc(CCC2(C3CCCC3)CC(=O)CC(=O)O2)cc1F (single isomer, unassigned) [J(1), 6-cyclopentyl-6-[2-(3-fluoro-4-isopropoxyphenyl)ethyl]dihydro-2H-pyran-2,4(3H)-dione] | 4400 nM
